For this data set the following is noted: Liquid, Gas chromatography.

SMILES strings stand for the structures. ± gives the expanded uncertainty stated by the source.

Regarding `C[Si]1(C)O[Si](C)(C)O[Si](C)(C)O[Si](C)(C)O[Si](C)(C)O1` [decamethylcyclopentasiloxane], the vapor or sublimation pressure – broadly, the equilibrium pressure above the liquid or solid – reads like this: (308.15 K) 0.04458 ± 0.0095 kPa; (318.15 K) 0.09293 ± 0.02 kPa; (328.15 K) 0.1853 ± 0.039 kPa; (338.15 K) 0.3545 ± 0.075 kPa; (348.15 K) 0.6537 ± 0.14 kPa; (358.15 K) 1.165 ± 0.25 kPa. Further, the “vapor or sublimation pressure” value (368.15 K) amounted to 2.011 ± 0.43 kPa.
As for `C[Si](C)(C)O[Si](C)(C)O[Si](C)(C)O[Si](C)(C)O[Si](C)(C)O[Si](C)(C)O[Si](C)(C)O[Si](C)(C)O[Si](C)(C)O[Si](C)(C)C` [docosamethyldecasiloxane], the “vapor or sublimation pressure” value reads like this: (368.15 K) 0.0007152 ± 0.00015 kPa; (378.15 K) 0.001861 ± 0.00039 kPa; (388.15 K) 0.00461 ± 0.00098 kPa; (398.15 K) 0.01091 ± 0.0023 kPa; (408.15 K) 0.02475 ± 0.0053 kPa; (418.15 K) 0.054 ± 0.011 kPa. Moreover, the “vapor or sublimation pressure” value (428.15 K) was 0.1136 ± 0.024 kPa and the “vapor or sublimation pressure” value (438.15 K) came out at 0.231 ± 0.049 kPa.
For the compound `C[Si]1(C)O[Si](C)(C)O[Si](C)(C)O[Si](C)(C)O[Si](C)(C)O[Si](C)(C)O1` [dodecamethylcyclohexasiloxane], the “vapor or sublimation pressure” value reads like this: (338.15 K) 0.04948 ± 0.01 kPa; (348.15 K) 0.09584 ± 0.02 kPa; (358.15 K) 0.1789 ± 0.038 kPa; (368.15 K) 0.3228 ± 0.069 kPa; (378.15 K) 0.5646 ± 0.12 kPa; (388.15 K) 0.9595 ± 0.2 kPa. For the same compound, the “vapor or sublimation pressure” value is 1.588 ± 0.34 kPa (398.15 K), 2.563 ± 0.54 kPa (408.15 K) and 4.044 ± 0.86 kPa (418.15 K).
As to `C[Si](C)(C)O[Si](C)(C)O[Si](C)(C)O[Si](C)(C)O[Si](C)(C)C` [dodecamethylpentasiloxane], the “vapor or sublimation pressure” value is, setting by setting: (338.15 K) 0.09498 ± 0.02 kPa; (348.15 K) 0.1719 ± 0.036 kPa; (358.15 K) 0.3011 ± 0.064 kPa; (368.15 K) 0.5114 ± 0.11 kPa; (378.15 K) 0.8448 ± 0.18 kPa; (388.15 K) 1.36 ± 0.29 kPa. The “vapor or sublimation pressure” value worked out at 2.137 ± 0.45 kPa (398.15 K) and 3.284 ± 0.7 kPa (408.15 K).
Turning to `C[Si](C)(C)O[Si](C)(C)O[Si](C)(C)O[Si](C)(C)O[Si](C)(C)O[Si](C)(C)O[Si](C)(C)O[Si](C)(C)O[Si](C)(C)C` [eicosamethylnonasiloxane], the “vapor or sublimation pressure” value was determined as 0.0004156 ± 8.8e-05 kPa (348.15 K); 0.001098 ± 0.00023 kPa (358.15 K); 0.002752 ± 0.00058 kPa (368.15 K); 0.006569 ± 0.0014 kPa (378.15 K); 0.015 ± 0.0032 kPa (388.15 K); 0.03284 ± 0.007 kPa (398.15 K). The “vapor or sublimation pressure” value was found to be 0.0692 ± 0.015 kPa (408.15 K), 0.1407 ± 0.03 kPa (418.15 K), 0.2769 ± 0.059 kPa (428.15 K) and 0.5281 ± 0.11 kPa (438.15 K).
In the case of `C[Si](C)(C)O[Si](C)(C)O[Si](C)(C)O[Si](C)(C)O[Si](C)(C)O[Si](C)(C)O[Si](C)(C)O[Si](C)(C)O[Si](C)(C)O[Si](C)(C)O[Si](C)(C)O[Si](C)(C)C` [hexacosamethyldodecasiloxane], the “vapor or sublimation pressure” value turned out to be 0.0004593 ± 9.7e-05 kPa (388.15 K); 0.001256 ± 0.00027 kPa (398.15 K); 0.00327 ± 0.00069 kPa (408.15 K); 0.008134 ± 0.0017 kPa (418.15 K); 0.01939 ± 0.0041 kPa (428.15 K); 0.04441 ± 0.0094 kPa (438.15 K).
Regarding `C[Si]1(C)O[Si](C)(C)O[Si](C)(C)O[Si](C)(C)O[Si](C)(C)O[Si](C)(C)O[Si](C)(C)O[Si](C)(C)O1` [hexadecamethylcyclooctasiloxane], the “vapor or sublimation pressure” value (338.15 K) is listed as 0.002101 ± 0.00045 kPa; the “vapor or sublimation pressure” value (348.15 K) worked out at 0.004912 ± 0.001 kPa; the “vapor or sublimation pressure” value (358.15 K) came to 0.01095 ± 0.0023 kPa; the “vapor or sublimation pressure” value (368.15 K) is listed as 0.02337 ± 0.005 kPa; the “vapor or sublimation pressure” value (378.15 K) is given as 0.04791 ± 0.01 kPa; the “vapor or sublimation pressure” value (388.15 K) was determined as 0.09466 ± 0.02 kPa. Moreover, the “vapor or sublimation pressure” value (398.15 K) amounted to 0.1807 ± 0.038 kPa, the “vapor or sublimation pressure” value (408.15 K) amounted to 0.3344 ± 0.071 kPa and the “vapor or sublimation pressure” value (418.15 K) is listed as 0.6006 ± 0.13 kPa.
In the case of `C[Si](C)(C)O[Si](C)(C)O[Si](C)(C)O[Si](C)(C)O[Si](C)(C)O[Si](C)(C)O[Si](C)(C)C` [hexadecamethylheptasiloxane], the “vapor or sublimation pressure” value runs as follows: (338.15 K) 0.003586 ± 0.00076 kPa; (348.15 K) 0.008232 ± 0.0017 kPa; (358.15 K) 0.01804 ± 0.0038 kPa; (368.15 K) 0.03789 ± 0.008 kPa; (378.15 K) 0.07651 ± 0.016 kPa; (388.15 K) 0.149 ± 0.032 kPa. The “vapor or sublimation pressure” value (398.15 K) was 0.2806 ± 0.06 kPa; the “vapor or sublimation pressure” value (408.15 K) worked out at 0.5124 ± 0.11 kPa; the “vapor or sublimation pressure” value (418.15 K) was 0.909 ± 0.19 kPa; the “vapor or sublimation pressure” value (428.15 K) amounted to 1.57 ± 0.33 kPa; the “vapor or sublimation pressure” value (438.15 K) is on record as 2.645 ± 0.56 kPa.
On to `C[Si]1(C)O[Si](C)(C)O[Si](C)(C)O[Si](C)(C)O[Si](C)(C)O[Si](C)(C)O[Si](C)(C)O[Si](C)(C)O[Si](C)(C)O[Si](C)(C)O1` [icosamethylcyclodecasiloxane], for which the “vapor or sublimation pressure” value was found to be 0.0008201 ± 0.00017 kPa (358.15 K); 0.002003 ± 0.00042 kPa (368.15 K); 0.004666 ± 0.00099 kPa (378.15 K); 0.01041 ± 0.0022 kPa (388.15 K); 0.02229 ± 0.0047 kPa (398.15 K); 0.046 ± 0.0098 kPa (408.15 K). Besides, the “vapor or sublimation pressure” value (418.15 K) is recorded as 0.09169 ± 0.019 kPa.
`C[Si](C)(C)O[Si](C)(C)O[Si](C)(C)O[Si](C)(C)O[Si](C)(C)O[Si](C)(C)O[Si](C)(C)O[Si](C)(C)O[Si](C)(C)O[Si](C)(C)O[Si](C)(C)O[Si](C)(C)O[Si](C)(C)C` [octacosamethyltridecasiloxane]: the “vapor or sublimation pressure” value (398.15 K) is 0.0004326 ± 9.2e-05 kPa; the “vapor or sublimation pressure” value (408.15 K) stood at 0.001205 ± 0.00026 kPa; the “vapor or sublimation pressure” value (418.15 K) was found to be 0.003194 ± 0.00068 kPa; the “vapor or sublimation pressure” value (428.15 K) is reported as 0.008092 ± 0.0017 kPa; the “vapor or sublimation pressure” value (438.15 K) is listed as 0.01965 ± 0.0042 kPa.
As to `C[Si]1(C)O[Si](C)(C)O[Si](C)(C)O[Si](C)(C)O[Si](C)(C)O[Si](C)(C)O[Si](C)(C)O[Si](C)(C)O[Si](C)(C)O1` [octadecamethylcyclononasiloxane], the “vapor or sublimation pressure” value is, setting by setting: (338.15 K) 0.0004734 ± 0.0001 kPa; (348.15 K) 0.0012 ± 0.00025 kPa; (358.15 K) 0.002888 ± 0.00061 kPa; (368.15 K) 0.006628 ± 0.0014 kPa; (378.15 K) 0.01455 ± 0.0031 kPa; (388.15 K) 0.03069 ± 0.0065 kPa. The “vapor or sublimation pressure” value is reported as 0.06234 ± 0.013 kPa (398.15 K), 0.1223 ± 0.026 kPa (408.15 K) and 0.2323 ± 0.049 kPa (418.15 K).
Regarding `C[Si](C)(C)O[Si](C)(C)O[Si](C)(C)O[Si](C)(C)O[Si](C)(C)O[Si](C)(C)O[Si](C)(C)O[Si](C)(C)C` [octadecamethyloctasiloxane], the “vapor or sublimation pressure” value by setting is: (338.15 K) 0.0007271 ± 0.00015 kPa; (348.15 K) 0.001846 ± 0.00039 kPa; (358.15 K) 0.004449 ± 0.00094 kPa; (368.15 K) 0.01022 ± 0.0022 kPa; (378.15 K) 0.02248 ± 0.0048 kPa; (388.15 K) 0.04747 ± 0.01 kPa. Besides, the “vapor or sublimation pressure” value (398.15 K) is given as 0.09653 ± 0.02 kPa; the “vapor or sublimation pressure” value (408.15 K) is reported as 0.1896 ± 0.04 kPa; the “vapor or sublimation pressure” value (418.15 K) stood at 0.3605 ± 0.077 kPa; the “vapor or sublimation pressure” value (428.15 K) is given as 0.6654 ± 0.14 kPa; the “vapor or sublimation pressure” value (438.15 K) turned out to be 1.194 ± 0.25 kPa.
On to `C[Si]1(C)O[Si](C)(C)O[Si](C)(C)O[Si](C)(C)O1` [octamethylcyclotetrasiloxane], for which the “vapor or sublimation pressure” value (308.15 K) came out at 0.2359 ± 0.05 kPa; the “vapor or sublimation pressure” value (318.15 K) is on record as 0.4269 ± 0.091 kPa; the “vapor or sublimation pressure” value (328.15 K) turned out to be 0.7452 ± 0.16 kPa; the “vapor or sublimation pressure” value (338.15 K) came out at 1.259 ± 0.27 kPa; the “vapor or sublimation pressure” value (348.15 K) is reported as 2.063 ± 0.44 kPa; the “vapor or sublimation pressure” value (358.15 K) is 3.289 ± 0.7 kPa. The “vapor or sublimation pressure” value (368.15 K) turned out to be 5.113 ± 1.1 kPa.
In the case of `C[Si](C)(C)O[Si](C)(C)O[Si](C)(C)O[Si](C)(C)O[Si](C)(C)O[Si](C)(C)O[Si](C)(C)O[Si](C)(C)O[Si](C)(C)O[Si](C)(C)O[Si](C)(C)C` [tetracosamethylundecasiloxane], the “vapor or sublimation pressure” value by setting is: (378.15 K) 0.0005391 ± 0.00011 kPa; (388.15 K) 0.001446 ± 0.00031 kPa; (398.15 K) 0.003689 ± 0.00078 kPa; (408.15 K) 0.008993 ± 0.0019 kPa; (418.15 K) 0.02101 ± 0.0045 kPa; (428.15 K) 0.04716 ± 0.01 kPa. The “vapor or sublimation pressure” value (438.15 K) is on record as 0.102 ± 0.022 kPa.

(Values after the NIST ThermoML archive (doi:10.1021/je100835n).)
